The values that follow come from patent US20180369186A1, “METHOD FOR MODULATING AUTOPHAGY AND APPLICATIONS THEREOF” (JAWAHARLAL NEHRU CENTRE FOR ADVANCED SCIENTIFIC RESEARCH, priority 2015, published 2018).

For one assay, the system named is GFP-Atg8. Put plainly: GFP-Atg8 processing assay (general autophagy). The format is cell-based, Saccharomyces cerevisiae. On the procedure:
Saccharomyces cerevisiae strain containing the GFP-Atg8 (pRS 316 vector backbone) plasmid is grown in synthetic complete medium lacking uracil (SC-URA) under appropriate conditions (30° C. 250 rpm). From this, a secondary culture is inoculated at A600 nm=0.2 and grown as above until A600 nm reached ˜0.65. The cultures are transferred to SD-N (nitrogen starvation) medium at A600 nm=3, separately with and without the compounds, and samples are collected at different time intervals. Sample preparation is done by the TCA precipitation method and immunoblotting is performed using standard methods.
Yeast strains (A600=3) are resuspended in trichloroacetic acid (12.5%) and stored at −80° C. for at least half an hour. Samples are thawed on ice, centrifuged (16000×g, 10 min) and pellet is washed twice with ice-cold acetone (80%). Pellets are air dried, resuspended in lysis (1% SDS and 0.1 N NaOH) solution and Laemmii buffer and boiled for 10 min.

Assay [1] relates to TH+ dopaminergic neurons in SNpc. Put plainly: MPTP mouse model: TH+ dopaminergic neurons in SNpc (stereology, densitometry, volume). The format is in vivo, mice. The protocol: As described by Vernice Jackson-Lewis & Serge Przedborski (2007), 23.4 mg/kg MPTP.HCl (equivalent to 20 mg/kg free base) in 10 ml/kg body wt. of saline is administered intraperitoneally (i.p.) for 4 times at 2 h intervals.
All mice are sacrificed 9 days post MPTP administration and brains are processed for immunohistochemistry.
Mice are anaesthetized using Halothane BP (Piramal Healthcare) inhalation and perfused intracardially with normal saline followed by 4% PFA in 0.1 M phosphate buffer, pH 7.4. Brains are removed quickly and post-fixed with 4% PFA for 24 h-48 h at 4° C. Following cryoprotection in 15% and 30% sucrose, 40 μm thick coronal cryosections of midbrain are collected serially on gelatinized slides. Immunoperoxidase labelling protocol as identical to that reported. Briefly, endogenous peroxidase is quenched using H2O2 (0.1%) in methanol (70%), followed by blocking of non-specific staining by buffered solution (3%) of bovine serum albumin for 4 h at room temperature. Sections are incubated with TH primary antibody (1:500) followed by biotin conjugated secondary antibody (1:200 dilution, Vector Laboratories). Tertiary labelling is performed with avidin-biotin complex solution (1:100, Vector Laboratories). Staining is visualized using 3′-3′-diaminobenzidine (0.05%) as a chromogen in a solution of 0.1M acetate imidazole buffer (pH 7.4) and H2O2 (0.1%). Negative controls are processed identically, except that primary antibody is replaced with dilution buffer.
As described by Y. Fu et al., SNpcis delineated using the 4× objective of Olympus BX61 Microscope (Olympus) equipped with Stereo Investigator Software Version 7.2 (MicroBrightField). Stereological quantification is performed using optical fractionator probe with slight modifications(P. A. Alladi et al.). Briefly, every sixth midbrain section containing SNpc is chosen and TH^+ cells are counted under 100× objective, with a regular grid interval of 22500 μm^2 (x=150 μm, y=150 μm) and counting frame with an area of 3600 μm^2 (x=60 μm, y=60 μm) (FIG. 10B). Mounted thickness is determined at every fifth site, averaging to 25 μm. Guard zone 4 μm is applied on either side, thus providing 17 μm of z-dimension within optical dissector. The quantification is performed starting with first anterior appearance of TH^+ neurons in SNpc to caudal most part. The SNpc volume is determined by planimetry (FIG. 10C) and total numbers of neurons according to mean measured thickness are noted.
High magnification images of TH stained nigral DAergic neurons, captured for offline assessment of Tyrosine Hydroxylase (TH) enzyme expression levels=used. Expression intensity is measured using a Windows based image analysis system (Q Win V3, Leica Systems). Cumulative mean is derived from the values obtained from sampling, approximately 200 DAergic neurons per animal. Intensity output is measured on a grey scale of 0-255, where 0 equals intense staining and 255 means absence of staining.
The mice are distributed into three groups' viz., vehicle, MPTP and MPTP+XCT 790 injected respectively. The vehicle group receives intraperitoneal injections of dimethyl sulfoxide (DMSO) injections i.e. the solvent. The MPTP group receives 23.4 mg/kg MPTP.HCl in 10 ml/kg body wt. of saline is administered intraperitoneally for 4 times at 2 h interval. The MPTP+XCT 790 group mice are injected with 5 mg/kg body wt, of XCT 790 dissolved in DMSO, alongside the first MPTP injection. […]

In a further assay the test system is α-synuclein-EGFP. Nature of the assay: α-synuclein-EGFP degradation assay in yeast. Type of assay: cell-based, S. cerevisiae. Particulars: 50 μM. On the procedure: Subsequent degradation of α-synuclein-EGFP levels are analyzed using immunoblotting (FIG. 9A).
Yeast cultures after respective treatments are washed, mounted on agarose (2%) pad and imaged. Images are acquired using DeltaVision Elite widefield microscope (API, GE) with following filters: DAPI (390/18 and 435/48), FITC (490/20 and 529/38), TRITC (542/27 and 594/45) and Cy5 (632/22 and 676/34). Images are processed using DV SoftWoRX software. Autophagosome (yellow) and autolysosome (red) are counted using Cell Counter plug-in in imager software (NIH) and graphically represented as fold difference versus untreated (FIGS. 4A, B, C and D).
After inducing α-synuclein-EGFP aggregates in the corresponding yeast strains driven by galactose promoter, the protein expression is turned off by adding dextrose in the medium. Then, α-synuclein-EGFP aggregates degradation by XCT 790 are assessed by collecting cells treated with and without XCT 790 (50 μM) for 0 and 24 h. Subsequently, the protein levels are analyzed using immunoblotting.
The appropriate yeast strains (A600=3) are mixed in trichloroacetic acid (12.5%) and then stored at −80° C. Then, the samples are thawed on ice, centrifuged (16000×g, 15 min) and the pellets are washed twice with ice-cold acetone (80%). Pellets are air dried, resuspended in lysis solution (0.1 N NaOH and 1% SDS) and Laemmli buffer and boiled for 15 min.
After respective treatments, the yeast cultures were washed, seeded on agarose (2%) pad and then imaged.

The mark [2] stands for this setting: starvation, 4 h and 6 h, 50 μM, versus untreated.

Take `O=C1Nc2cc(Br)ccc2/C1=C1/Nc2ccccc2/C1=N\O` [6-Bio, (2′Z,3′E)-6-Bromoindirubin-3′-oxime]: the “autophagy induction / flux, growth condition” value in the assay on GFP-Atg8 (growth condition, 6 h, 50 μM) is “dramatically induces autophagy”. The “increase in autophagic flux, growth condition” value in the assay with GFP-Atg8 (growth condition, 50 μM, versus untreated) is reported as “approximately 3 fold”. Also, in the assay with GFP-Atg8 (setting [2]), the “increase in autophagic flux, starvation condition” value is on record as 2 fold and the “increase in autophagy induction, starvation condition” value is given as 2 fold. Moreover, the “decrease in SNpc volume upon MPTP administration” value in assay [1] (5 mg/kg i.p., Co and Pro groups) was “not seen”. The “α-synuclein-EGFP clearance in autophagy mutant atg1Δ” value with α-synuclein-EGFP (atg1Δ) was “not in an autophagy mutant”. In addition, the “α-synuclein-EGFP levels in wild type cells” value with α-synuclein-EGFP (non-starvation and starvation, 0, 6, 12 and 24 h) is “time-dependent and significant decrease”.
For the compound `Cc1ccc(S(=O)(=O)/C=C/C#N)cc1` [Bay11, 3-[(4-methylphenyl)sulfonyl]-(2E)-propenenitrile], in the assay on GFP-Atg8 (starvation), the “GFP-Atg8 labelled autophagosomes, fluorescence microscopy” value is reported as “accumulation of punctate structures outside the vacuole” and the “release of GFP from GFP-Atg8 (general autophagy)” value is “slower release of GFP”.
In the case of `COc1cc(C=C(C#N)C(=O)Nc2nnc(C(F)(F)F)s2)ccc1OCc1ccc(C(F)(F)F)cc1C(F)(F)F` [XCT 790, 3-[4-(2,4-Bis-trifluoromethylbenzyloxy)-3-methoxyphenyl]-2-cyano-N-(5-trifluoromethyl-1,3,4-thiadiazol-2-yl)acrylamide], the “prevention of SNpc volume shrinkage” value in assay [1] (5 mg/kg, MPTP+Co vs MPTP) is on record as “approximately 85%”. Besides, the “alleviation of MPTP induced dopaminergic neuronal loss” value in assay [1] (5 mg/kg, co-administration with MPTP) came to 80%. Also, in the assay with α-synuclein-EGFP (24 h, untreated vs treated), the “clearance of α-synuclein-EGFP in wild-type strain” value is roughly 2.5 fold. In addition, in the assay on α-synuclein-EGFP (microscopy, WT α-synuclein-EGFP, untreated vs treated), the “vacuolar free EGFP (vacuolar degradation of α-synuclein-EGFP)” value was roughly 14 fold.
